Data set [1] deals with Leishmania donovani. Kind of data set: Antileishmanial activity against luciferase expressing Leishmania donovani intracellular amastigotes infected in human THP1 cells assessed as inhibition of parasite growth after 48 hrs by Bright-glo luciferase assay. To be noted: THP-1, 48 h. In kind it is functional, organism-based.
The test system of data set [2] is Leishmania donovani. The data set can be described thus: Antileishmanial activity against Leishmania donovani MHOM/SD/1962/1S-Cl2d axenic amastigotes assessed as inhibition of parasite growth after 24 hrs by alamar blue staining based fluorescent viability microplate assay. It is filed as functional, organism-based. (In general: Alamar Blue is a resazurin reagent that responds to reducing activity.)

Data set [3] can be described thus: Selectivity index, ratio of EC50 for human THP1 cells to EC50 for Leishmania donovani axenic amastigotes. In kind it is toxicity, cell-based, THP-1. To be noted: THP1 cells versus Leishmania donovani axenic amastigotes, read-out: Ratio EC50.
In data set [4] the test system is Leishmania donovani. Kind of data set: Antileishmanial activity against Leishmania donovani MHOM/SD/1962/1S-Cl2d axenic amastigotes assessed as inhibition of parasite growth at 50 uM after 24 hrs by alamar blue staining based fluorescent viability microplate assay. To be noted: read-out: GI. It is filed as functional.
The subject of data set [5] is Leishmania donovani. The data set can be described thus: Antileishmanial activity against luciferase expressing Leishmania donovani intracellular amastigotes infected in human THP1 cells assessed as inhibition of parasite growth at 5 uM after 48 hrs by Bright-glo luciferase assay. It is filed as functional. The conditions noted are these: THP-1, 48 h, read-out: GI.

The nature of data set [6]: Cytotoxicity against mouse NIH/3T3 cells assessed as reduction in cell viability after 48 hrs by alamar blue dye based assay. To be noted: NIH3T3, 48 h.
A short description of data set [7]: Cytotoxicity against human THP1 cells assessed as reduction in cell viability after 48 hrs by alamar blue dye based assay. The conditions noted are these: THP-1, 48 h.
For data set [8], the system named is Leishmania donovani. The data set can be described thus: Antileishmanial activity against Leishmania donovani MHOM/SD/1962/1S-Cl2d axenic amastigotes assessed as inhibition of parasite growth at 5 uM after 24 hrs by alamar blue staining based fluorescent viability microplate assay. In kind it is functional. To be noted: read-out: GI.
The nature of data set [9]: Selectivity index, ratio of EC50 for mouse NIH/3T3 cells to EC50 for Leishmania donovani […] amastigotes. It is filed as toxicity, cell-based. To be noted: read-out: Ratio EC50.
The test system of data set [10] is Leishmania donovani. The data set can be described thus: Antileishmanial activity against Leishmania donovani MHOM/SD/1962/1S-Cl2d axenic amastigotes assessed as inhibition of parasite growth at 15 uM after 24 hrs by alamar blue staining based fluorescent viability microplate assay. To be noted: read-out: GI. In kind it is functional.
Data set [11] concerns Leishmania donovani. The data set can be described thus: Antileishmanial activity against luciferase expressing Leishmania donovani intracellular amastigotes infected in human THP1 cells assessed as inhibition of parasite growth at 1 uM after 48 hrs by Bright-glo luciferase assay. In kind it is functional. To be noted: THP-1, 48 h, read-out: GI.
For data set [12], the system named is Leishmania donovani. Kind of data set: Antileishmanial activity against Leishmania donovani MHOM/SD/1962/1S-Cl2d axenic amastigotes assessed as inhibition of parasite growth at 1 uM after 24 hrs by alamar blue staining based fluorescent viability microplate assay. In kind it is functional. The conditions noted are these: read-out: GI.

Broadly, the EC50 is the concentration that produces a half-maximal response.

SMILES strings stand for the structures. Bounds are passed on as bounds.

For the compound `N=C(NOC(=O)Nc1cccc(Cl)c1)c1ccc2nonc2c1`, the EC50 in data set [1] is 5.92 µM; in data set [2], 4.2 µM; in data set [6], above 300 µM; in [7], 79.9 µM. Besides, the selectivity ratio was 19 in [3] and above 71.4 in data set [9]. In data set [4], the inhibition of growth at 50 µM was 94.8%. Moreover, the results for the inhibition of growth at 5 µM in data set [5] and in [8] were 33.1% and 43.4%, respectively. Further, in data set [10], the inhibition of growth at 15 µM came to 87.2%.
Consider `N=C(NOC(=O)Nc1ccccc1)c1ccc2nonc2c1`, for which the inhibition of growth at 50 µM in data set [4] turned out to be 70.1%. The inhibition of growth at 15 µM in [10] stood at 24.2%.
For the compound `Cc1ccc(NC(=O)O/N=C(\N)c2ccc3nonc3c2)cc1`, the inhibition of growth at 50 µM in data set [4] was found to be 64.1%.
With `N/C(=N\OC(=O)Nc1ccccc1)c1ccc2[nH]ccc2c1`, the inhibition of growth at 50 µM in [4] is 91.9%. In data set [10], the inhibition of growth at 15 µM was determined as 21.6%.
For `N/C(=N\OC(=O)Nc1ccccc1)c1ccc2ccccc2c1`, the inhibition of growth at 50 µM in data set [4] turned out to be 98.8%. Besides, the inhibition of growth at 15 µM in data set [10] amounted to 24.9%.
Regarding `N/C(=N\OC(=O)Nc1ccccc1)c1ccc2occc2c1`, the inhibition of growth at 50 µM in data set [4] came out at 95.2%. For the same compound, the inhibition of growth at 15 µM in data set [10] stood at 48%.
Consider `N/C(=N\OC(=O)Cc1ccccc1)c1ccc2nonc2c1`, for which the inhibition of growth at 50 µM in data set [4] amounted to 22.4%.
The same measure, in the same setting: with `N/C(=N\OC(=O)NC1CCCCC1)c1ccc2nonc2c1` the figure was 43.9%.
As to `COc1cccc(NC(=O)O/N=C(\N)c2ccc3nonc3c2)c1`, the inhibition of growth at 50 µM in data set [4] amounted to 71.4%. In addition, in data set [10], the inhibition of growth at 15 µM was found to be 31.8%.
As to `Cc1cccc(NC(=O)O/N=C(\N)c2ccc3nonc3c2)c1`, in data set [4], the inhibition of growth at 50 µM is 67.2%. Besides, the inhibition of growth at 15 µM in [10] turned out to be 44.6%.
As to `N/C(=N\OC(=O)Nc1ccc(Cl)cc1)c1ccc2nonc2c1`, in data set [4], the inhibition of growth at 50 µM worked out at 44%.
The same measure, in the same setting: with `N/C(=N\OC(=O)Oc1ccccc1)c1ccc2nonc2c1` the figure was 26.5%.
Take `Cc1ccccc1NC(=O)O/N=C(\N)c1ccc2nonc2c1`: the inhibition of growth at 50 µM in data set [4] was 42%.
Same read-out and setting: the figure for `N/C(=N\OC(=O)c1ccccc1)c1ccc2nonc2c1` is 51.1%; for `N/C(=N\OC(=O)Nc1cccc(C(F)(F)F)c1)c1ccc2nonc2c1` it is 51.4%.
The same measure, in the same setting: the figure for `N/C(=N\OC(=O)Nc1ccccc1)c1ccc2[nH]cnc2c1` is 72%.
On the same count and under the same terms, the figure for `N/C(=N\OC(=O)Nc1ccccc1Cl)c1ccc2nonc2c1` is 29.6%.
As to `N/C(=N\OC(=O)Nc1ccccc1)c1ccc2c(c1)OCO2`, in data set [4], the inhibition of growth at 50 µM amounted to 93%. For the same compound, in data set [10], the inhibition of growth at 15 µM amounted to 33.9%.
Regarding `COc1ccccc1NC(=O)O/N=C(\N)c1ccc2nonc2c1`, the inhibition of growth at 50 µM in data set [4] is 38%.
The same measure, in the same setting: with `N/C(=N\OC(=O)Nc1ccc(C(F)(F)F)cc1)c1ccc2nonc2c1` the figure was 51.7%.
For the compound `N/C(=N\OC(=O)Nc1ccccc1)c1ccccc1`, the inhibition of growth at 50 µM in data set [4] is 78.4%. The inhibition of growth at 15 µM in [10] was determined as 5.4%.
Turning to `N/C(=N\OC(=O)Nc1ccccc1C(F)(F)F)c1ccc2nonc2c1`, the inhibition of growth at 50 µM in data set [4] amounted to 42.1%.
Consider `O=C(Nc1ccccc1)ONC(=O)c1ccc2nonc2c1`, for which the figures for the EC50 in data set [2], in data set [6] and in [7] were 8.1 µM, above 300 µM and 33.7 µM, respectively. In addition, the figures for the selectivity ratio in data set [3] and in [9] were 4.2 and above 37, respectively. For the same compound, the inhibition of growth at 50 µM in [4] was 96.2%. For the same compound, the inhibition of growth at 5 µM in data set [5] was determined as 19.9%; in data set [8], 54.6%. Also, in [10], the inhibition of growth at 15 µM was found to be 68.2%.
For the compound `COc1ccc(NC(=O)O/N=C(\N)c2ccc3nonc3c2)cc1`, the inhibition of growth at 50 µM in data set [4] stood at 46%.
Consider `N/C(=N\OC(=O)Nc1ccccc1)c1ccc2sccc2c1`, for which the inhibition of growth at 50 µM in data set [4] was 97.9%. The inhibition of growth at 15 µM in [10] was found to be 35.2%.
For the compound `C[C@@H]1[C@H](O)[C@@H](C)/C=C/C=C/C=C/C=C/C=C/C=C/C=C/[C@H](O[C@@H]2O[C@H](C)[C@@H](O)[C@H](N)[C@@H]2O)C[C@@H]2O[C@](O)(C[C@@H](O)C[C@@H](O)[C@H](O)CC[C@@H](O)C[C@@H](O)CC(=O)O[C@H]1C)C[C@H](O)[C@H]2C(=O)O` [AMPHOTERICIN B], the EC50 in [1] worked out at 0.11 µM; in [6], 2.2 µM; in [7], 2.1 µM. The inhibition of growth at 1 µM in data set [11] was above 90%; in data set [12], 99.7%.
